Experimental data from PubChem BioAssay (NCI).
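GI50 marks 50% less growth. TGI: total growth inhibition.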

How the values were obtained:
Assay in all cases: DTP human tumour cell line panel, 384-well format
[1] = tested on: CAKI-1 renal
[2] = tested on: MDA-MB-468 breast
[3] = tested on: SR leukemia
[4] = tested on: COLO 205 colon
[5] = tested on: DU-145 prostate
[6] = tested on: MDA-MB-231 breast
[7] = tested on: KM12 colon
[8] = tested on: NCI-H23 lung
[9] = tested on: M14 melanoma
[10] = tested on: OVCAR-4 ovarian
[11] = tested on: IGROV1 ovarian
[12] = tested on: OVCAR-5 ovarian
[13] = tested on: MCF7 breast
[14] = tested on: HCC-2998 colon
[15] = tested on: UO-31 renal
[16] = tested on: CCRF-CEM leukemia
[17] = tested on: A549 NSCLC
[18] = tested on: NCI-H322M lung
[19] = tested on: RXF 393 renal
[20] = tested on: MOLT-4 leukemia
[21] = tested on: SK-MEL-28 melanoma
[22] = tested on: PC-3 prostate
[23] = tested on: NCI/ADR-RES ovarian
[24] = tested on: SK-MEL-5 melanoma
[25] = tested on: UACC-257 melanoma
[26] = tested on: LOX IMVI melanoma
[27] = tested on: RPMI-8226 leukemia
[28] = tested on: SK-OV-3 ovarian
[29] = tested on: HOP-92 NSCLC
[30] = tested on: UACC-62 melanoma
[31] = tested on: MDA-MB-435 melanoma
[32] = tested on: NCI-H226 lung
[33] = tested on: NCI-H460 NSCLC
[34] = tested on: NCI-H522 lung
[35] = tested on: OVCAR-3 ovarian
[36] = tested on: K-562 leukemia
[37] = tested on: U251 glioblastoma
[38] = tested on: SF-539 CNS
[39] = tested on: SK-MEL-2 melanoma
[40] = tested on: HCT-116 colon
[41] = tested on: HOP-62 NSCLC
[42] = tested on: SF-295 CNS
[43] = tested on: MALME-3M melanoma
[44] = tested on: HL-60(TB) leukemia
[45] = tested on: 786-0 renal
[46] = tested on: SW-620 colon
[47] = tested on: BT-549 breast
[48] = tested on: A498 renal
[49] = tested on: SF-268 CNS
[50] = tested on: ACHN renal
[51] = tested on: T-47D breast
[52] = tested on: SNB-19 CNS
[53] = tested on: HCT-15 colon
[54] = tested on: OVCAR-8 ovarian
[55] = tested on: TK-10 renal
[56] = tested on: HT29 colon
[57] = tested on: SN12C renal
[58] = tested on: EKVX NSCLC
[59] = tested on: SNB-75 CNS
[60] = tested on: HS 578T breast

Compound CC1(C)CCC(c2ccc(Cl)cc2)=C(CN2CCN(c3ccc(C(=O)NS(=O)(=O)c4ccc(N[C@H](CCN5CCOCC5)CSc5ccccc5)c(S(=O)(=O)C(F)(F)F)c4)cc3)CC2)C1 has a GI50 [1] of 2020 nM, a TGI [1] of 3460 nM and a GI50 [2] of 1590 nM. For the same compound, the TGI [2] was 3080 nM, the GI50 [3] was 365 nM and the TGI [3] was 2040 nM. It also gave a GI50 [4] of 1250 nM, a TGI [4] of 2510 nM and a GI50 [5] of 2300 nM. The TGI [5] was 4790 nM, the GI50 [6] was 316 nM and the TGI [6] was 1170 nM. The GI50 [7] was 1760 nM, the TGI [7] was 3230 nM and the GI50 [8] was 1730 nM. For the same compound, the TGI [8] was 3130 nM, the GI50 [9] was 1830 nM and the TGI [9] was 3240 nM. For the same compound, the GI50 [10] was 1270 nM, the TGI [10] was 2790 nM and the GI50 [11] was 1560 nM. It also gave a TGI [11] of 2990 nM, a GI50 [12] of 1460 nM and a TGI [12] of 2840 nM. The GI50 [13] was 1880 nM, the TGI [13] was 4580 nM and the GI50 [14] was 150 nM. The TGI [14] was 765 nM, the GI50 [15] was 1370 nM and the TGI [15] was 2670 nM. For the same compound, the GI50 [16] was 69.8 nM, the TGI [16] was 198 nM and the GI50 [17] was 1630 nM. The TGI [17] was 3120 nM, the GI50 [18] was 1880 nM and the TGI [18] was 3670 nM. For the same compound, the GI50 [19] was 17.4 nM, the TGI [19] was 325 nM and the GI50 [20] was 22.1 nM. The TGI [20] was 64 nM, the GI50 [21] was 1930 nM and the TGI [21] was 3390 nM. It also gave a GI50 [22] of 1740 nM, a TGI [22] of 3120 nM and a GI50 [23] of 2800 nM. The TGI [23] was 7690 nM, the GI50 [24] was 1660 nM and the TGI [24] was 3020 nM. The GI50 [25] was 1590 nM, the TGI [25] was 3010 nM and the GI50 [26] was 1950 nM. The TGI [26] was 3370 nM, the GI50 [27] was 82.1 nM and the TGI [27] was 207 nM. It also gave a GI50 [28] of 1960 nM, a TGI [28] of 3480 nM and a GI50 [29] of 135 nM. It also gave a TGI [29] of 771 nM, a GI50 [30] of 1800 nM and a TGI [30] of 3190 nM. It also gave a GI50 [31] of 1940 nM, a TGI [31] of 3390 nM and a GI50 [32] of 1100 nM. For the same compound, the TGI [32] was 2310 nM, the GI50 [33] was 1840 nM and the TGI [33] was 3280 nM. It also gave a GI50 [34] of 1850 nM, a TGI [34] of 3650 nM and a GI50 [35] of 1560 nM. It also gave a TGI [35] of 2900 nM, a GI50 [36] of 1940 nM and a TGI [36] of 3350 nM. For the same compound, the GI50 [37] was 1910 nM, the TGI [37] was 3390 nM and the GI50 [38] was 1720 nM. For the same compound, the TGI [38] was 3110 nM, the GI50 [39] was 1230 nM and the TGI [39] was 2480 nM. The GI50 [40] was 1600 nM, the TGI [40] was 2990 nM and the GI50 [41] was 2030 nM. The TGI [41] was 3490 nM, the GI50 [42] was 1750 nM and the TGI [42] was 3140 nM. For the same compound, the GI50 [43] was 1870 nM, the TGI [43] was 3270 nM and the GI50 [44] was 195 nM. The TGI [44] was 893 nM, the GI50 [45] was 1620 nM and the TGI [45] was 3030 nM. For the same compound, the GI50 [46] was 940 nM, the TGI [46] was 2120 nM and the GI50 [47] was 1810 nM. It also gave a TGI [47] of 3230 nM, a GI50 [48] of 1160 nM and a TGI [48] of 2390 nM. For the same compound, the GI50 [49] was 1880 nM, the TGI [49] was 3360 nM and the GI50 [50] was 1800 nM. The TGI [50] was 3200 nM, the GI50 [51] was 1870 nM and the TGI [51] was 3520 nM. The GI50 [52] was 2170 nM, the TGI [52] was 4020 nM and the GI50 [53] was 1750 nM. It also gave a TGI [53] of 3180 nM, a GI50 [54] of 1750 nM and a TGI [54] of 3140 nM. For the same compound, the GI50 [55] was 1660 nM, the TGI [55] was 3050 nM and the GI50 [56] was 1840 nM. The TGI [56] was 3270 nM, the GI50 [57] was 2130 nM and the TGI [57] was 3590 nM.

In the case of COc1cc(C(=O)N[C@@H]2CCCN(C)C2)ccc1Nc1ncc2c(n1)N(C1CCCC1)CC(C)(C)C(=O)N2C, the GI50 [1] is reported as 395 nM, the TGI [1] is reported as 2640 nM and the TGI [2] is reported as 16.3 nM. For the same compound, the GI50 [4] was 19.5 nM, the TGI [4] was 71.4 nM and the GI50 [5] was 35.1 nM. The TGI [5] was 206 nM, the GI50 [6] was 41.8 nM and the TGI [6] was 2220 nM. It also gave a GI50 [7] of 17 nM, a TGI [7] of 1050 nM and a GI50 [8] of 17.6 nM. The TGI [8] was 52.6 nM, the GI50 [9] was 27.3 nM and the TGI [9] was 136 nM. For the same compound, the GI50 [10] was 1110 nM, the TGI [10] was 2780 nM and the GI50 [11] was 45.7 nM. It also gave a TGI [11] of 1670 nM, a GI50 [12] of 35.9 nM and a TGI [12] of 1220 nM. For the same compound, the GI50 [13] was 28.9 nM, the TGI [13] was 1300 nM and the GI50 [14] was 21.8 nM. For the same compound, the TGI [14] was 94.2 nM, the GI50 [15] was 345 nM and the TGI [15] was 1390 nM. The TGI [16] was 21.3 nM, the GI50 [17] was 38.7 nM and the TGI [17] was 1090 nM. The GI50 [18] was 510 nM, the TGI [18] was 3730 nM and the GI50 [19] was 20 nM. The TGI [19] was 61.4 nM, the GI50 [20] was 13.3 nM and the TGI [20] was 26.4 nM. The GI50 [21] was 128 nM, the TGI [21] was 911 nM and the GI50 [22] was 62.1 nM. The TGI [22] was 2620 nM, the GI50 [23] was 695 nM and the TGI [23] was 2340 nM. The GI50 [24] was 25.3 nM, the TGI [24] was 133 nM and the GI50 [25] was 40.8 nM. It also gave a TGI [25] of 612 nM, a GI50 [26] of 34.1 nM and a TGI [26] of 201 nM. The GI50 [27] was 31.6 nM, the TGI [27] was 101 nM and the GI50 [28] was 45.6 nM. It also gave a TGI [28] of 1200 nM, a GI50 [58] of 119 nM and a TGI [58] of 1880 nM. For the same compound, the GI50 [59] was 285 nM, the TGI [59] was 2610 nM and the GI50 [29] was 88.1 nM. It also gave a TGI [29] of 989 nM, a GI50 [30] of 33.7 nM and a TGI [30] of 252 nM. It also gave a GI50 [31] of 19 nM, a TGI [31] of 40.6 nM and a GI50 [32] of 1620 nM. For the same compound, the TGI [32] was 12000 nM, the GI50 [33] was 21.7 nM and the TGI [33] was 47.9 nM. It also gave a GI50 [34] of 17.1 nM, a TGI [34] of 37.5 nM and a GI50 [35] of 18.1 nM. For the same compound, the TGI [35] was 47.9 nM, the GI50 [36] was 19.1 nM and the TGI [36] was 55.4 nM. The GI50 [37] was 46.7 nM, the TGI [37] was 1440 nM and the GI50 [38] was 36 nM. It also gave a TGI [38] of 267 nM, a GI50 [40] of 39.4 nM and a TGI [40] of 705 nM. The GI50 [41] was 31.7 nM, the TGI [41] was 598 nM and the GI50 [42] was 38.6 nM. The TGI [42] was 196 nM, the GI50 [43] was 45.9 nM and the TGI [43] was 251 nM. It also gave a GI50 [60] of 16.9 nM, a TGI [60] of 89 nM and a GI50 [44] of 14.3 nM. For the same compound, the TGI [44] was 28.3 nM, the GI50 [45] was 63.8 nM and the TGI [45] was 1440 nM. It also gave a GI50 [46] of 20.5 nM, a TGI [46] of 114 nM and a GI50 [47] of 43.2 nM. The TGI [47] was 309 nM, the GI50 [48] was 206 nM and the TGI [48] was 1850 nM. For the same compound, the GI50 [49] was 10.5 nM, the TGI [49] was 47 nM and the GI50 [50] was 541 nM. For the same compound, the TGI [50] was 2230 nM, the GI50 [51] was 81.5 nM and the TGI [51] was 892 nM. For the same compound, the GI50 [52] was 50.1 nM, the TGI [52] was 1850 nM and the GI50 [53] was 69.6 nM. The TGI [53] was 334 nM, the GI50 [54] was 22.3 nM and the TGI [54] was 53.9 nM. For the same compound, the GI50 [55] was 1170 nM, the TGI [55] was 4970 nM and the GI50 [56] was 21.2 nM. For the same compound, the TGI [56] was 68.1 nM, the GI50 [57] was 94.2 nM and the TGI [57] was 2210 nM.
